Reference: patent US8557851B2, “Combinations of flupirtine and sodium channel inhibiting substances for treating pains” (MEDA Pharma GmbH & Co. KG, priority 2003, dated 2013)

Experiments:
[1] = system: skeletal muscle tone of conscious mice; experiment: Skeletal muscle tone in mice in the inclined screen test; format: in vivo, mouse (NMRI); details: Mus musculus, ip, single substance, read-out: ED50, decrease of skeletal muscle tone (inclined screen test)
Procedure: NMRI mice weighing 22-24 g were kept in groups of four under standard conditions (temperature 22° C., humidity 40-60%) without any restriction in food and water. Illumination was provided from 6 a.m. to 6 p.m. All the experiments were approved by the local animal health committee which was responsible for the protection and proper use of experimental animals.
What is termed the “30 degrees inclined screen test” (Simiand et al., Arch Int Pharmacodyn Ther 1989; 297:272-85) was used as a pharmacological model which enables predictions to be made regarding muscle-relaxing properties. The inclined screen consists of a wooden frame containing a wire gauze screen which can be inclined at any arbitrary angle (in this present case: […]). The lower part of the screen is located 15 cm above the table. The animals are placed on the inclined screen and their ability to remain on the inclined screen is observed over a period of 30 s. The number of animals which fall from the screen is counted and the proportion it represents of the total number in each group is calculated. The active compounds were prepared freshly every day and were administered simultaneously i.p. at various doses, at 1 h before beginning the experiments, for analyzing the skeletal muscle tone.
The statistical analysis of the differences between the calculated and measured values were performed by means of a one-way ANOVA. […]

[2] = system: reserpine-induced skeletal muscle rigidity; experiment: Muscle-relaxing effect on reserpine-induced muscular rigidity in rats; format: in vivo, rat (male Sprague-Dawley); details: Rattus norvegicus, ip, read-out: ED50, reduction of reserpine-induced skeletal muscle rigidity
Procedure: Male Sprague-Dawley rats weighing 200-220 g were kept in groups of two under standard conditions (temperature 22° C., humidity 40-60%) without any restriction in food or water. Illumination was provided from 6 a.m. to 6 p.m. The experiments were approved by the local animal health committee which was responsible for the protection and proper use of experimental animals.
The experimental approach has already been described in detail (Nickel et al. Arzn Forsch/Drug Res 1997; 47:1081-6). In brief, the rigidity of the skeletal muscle was measured by consecutively measuring the resistance of the flexor and extensor muscles which act in opposition when stretching and bending the foot in the joint. The pressure differences which were generated by the movement of the foot were recorded continuously. The signals were analyzed using a PC program which calculated the resistances of the flexor and extensor at the foot over periods of 10 min.
The active compounds were prepared freshly every day and were administered simultaneously i.p. at various doses 16 h after the reserpine injection (2 mg/kg, intraperitoneally).
The statistical analysis of the differences between the calculated and measured values was performed by means of a one-way. ANOVA. Asterisks (*) denote the significant level p<0.01.

| Structure (SMILES) | ED50 [1] [mg/kg] | ED50 [2] [mg/kg] |
| --- | --- | --- |
| CCOC(=O)Nc1ccc(NCc2ccc(F)cc2)nc1N [flupirtine] | 10.8 | 6.45 |
| Cc1ccc(C(=O)C(C)CN2CCCCC2)cc1 (stereo not shown) [tolperisone] | 51 | 32.4 |
